Results: US8552011B2, “6-(C2-6alkylseleno)purines and methods for treating neural measles viral infection therewith” (priority 2008, dated 2013)

Legend:
HeLa cells [1] = test: MTT tetrazole reduction assay, acute toxicity; assay type: cell-based, human; settings: 24 h incubation, 65, 10, 1, 0.1, 0.01, 0.001 ng/ml, 0.1% DMSO
Source text: (§1) Cells and cell culture: HeLa cells (human cervical carcinoma) were used for these studies. Cells were maintained in DMEM medium supplemented with 10% fetal calf serum (FCS) and antibiotics in a humidified, 5% CO2 environment. Cells were passaged as required by trypsinization.
(§2) Evaluation of toxicity: Acute toxicity was quantified using a standard tetrazole reduction assay as a measure of cell proliferation/viability. Briefly, quadruplicate wells of HeLa cells (1×10^4 cells, 96-well plates) were incubated for 24 h with the ESP or DMSO as a control and the reduction of tetrazolium salt (MTT) to purple formazan by mitochondrial reductases enzymes in viable cells detected as a change in absorbance (λ=500-600 nm). Overt cytotoxicity was also evaluated qualitatively by microscopic analysis over longer exposure periods during the antiviral tests. Toxicity was considered to be evident if cell injury or loss was observed or a reduction in MTT activity of greater than twenty-five percent relative to controls was detected.
(1)—Evaluation of acute toxicity: ESP was assessed by MTT assay as described above using a series of dilutions (w/v): 65, 10, 1, 0.1, 0.01, 0.001 and 0 ng/ml. […] Toxicity was evaluated over a 24 h incubation period, a time period that corresponded to the pre-treatment phase of the anti-viral testing protocol.

[2] = tested on: measles virus strain Halle (MV-H); test: Anti-viral screening, syncytia formation in infected HeLa cells; assay type: cell-based; settings: for reduction of syncytia formation: MV-H infected HeLa cells
Method: (§3) Viruses: Two strains of measles virus (MV) were evaluated in this study: 1) strain Edmonston (MV-E), the prototypical lab-adapted strain originally derived from the blood of a human patient in the acute phase of a typical infection, and 2) strain Halle (MV-H), a neurovirulent strain derived from a lymph node biopsy of a human patient with subacute sclerosing panencephalitis. One strain of herpes simplex virus (HSV) was evaluated: HSV-2 (strain G). This strain is a primary isolate derived from an active genital infection.
(§4) Infection conditions: Cells (4×10^4 cells/well) were seeded in 24-well culture plates and pre-treated with ESP for 24 hr prior to infection. Cells were incubated with 100 μl of MV at the indicated MOI for 1 h at 37° C. before conditioned media containing the test compound and 5% FCS was replaced for the assay duration. MV replication was evaluated daily by microscopic analysis until cells were stained with 0.1% cresyl violet dye and scored for cytopathic effects. Similar conditions were employed for HSV-2 with the exception that infections were performed at 35° C. over a test period of 72 h.

[3] = tested on: measles virus strain Edmonston (MV-E); test: as above; assay type: cell-based
Method: as §3, §4

HSV-2 (strain G) = test: Anti-HSV screening, plaque formation in infected HeLa cells; assay type: cell-based, herpes simplex virus; settings: HSV-2, MOI 1, 0.1, 0.01, ESP 1, 0.5, 0.25, 0.1 μg/ml, 72 h
Method: as §3, §4
(4)—Anti-HSV screening: ESP was evaluated at 1, 0.5. 0.25, 0.1 and 0 μg/ml against HSV-2 at MOI=I, 0.1 and 0.01.

HeLa cells [4] = test: Overt cytotoxicity by microscopic analysis during the antiviral tests; assay type: cell-based, human; settings: for toxic effects: by 72 h PI
Source text: as §1, §2, §4

In the case of `CC[Se]c1ncnc2[nH]cnc12` [ESP], the “acute toxicity (MTT assay)” value (HeLa cells [1]) is reported as “toxicity was not observed”, the “reduction of syncytia formation” value ([2]; 0.1 μg/ml ESP) is reported as 25% and the “reduction of syncytia formation” value ([2]; 1 μg/ml ESP) is reported as 66%. The “syncytia formation, treated vs vehicle controls” value ([2]; preliminary screening, MV-H, MOI 1.0, 0.1, 0.01, Day 5 PI) was “a decrease in syncytia formulation was evident”, the “syncytia formation vs untreated controls” value ([3]; anti-MV screening, MOI 1.0, 0.1, 0.01, ESP 5-0.1 ng/ml as printed) was “did not significantly decrease syncytia formation” and the “syncytia formation, treated vs untreated wells” value ([3]; preliminary screening, MOI 1.0, 0.1, 0.01, Day 5 PI) was “syncytia formation did not differ between treated and untreated wells”. For the same molecule, the “viral replication as evidenced by plaque formation, vs vehicle controls” value (HSV-2 (strain G)) was “No difference in viral replication”, the “concentration usable in the absence of toxic effects” value (HeLa cells [4]) was at most 1000 ng/mL and the toxic effects (HeLa cells [4]; 2.5 μg/ml) was “toxic effects were observed”. The toxic effects (HeLa cells [4]; 5 μg/ml) was “toxic effects were observed”, the overt cytotoxicity (HeLa cells [4]; 10 μg/ml, 72 h post-infection) was “overt cytotoxicity was observed” and the overt cytotoxicity (HeLa cells [4]; 65 μg/ml, 24 h post-infection) was “overt cytotoxicity was observed”. For the same molecule, the “toxicity during pre-treatment phase” value (HeLa cells [4]; 24 h pre-treatment before infection, 65-0.01 μg/ml) was “no toxicity was evident” and the toxicity (HeLa cells [4]; concentrations less than or equal to 1 μg/ml, time-frames approaching one week) was “No toxicity was observed”.
